System: M109 cells
Assay: Effect of isolated folate-fluorescein conjugates on growth of solid tumors (subcutaneous M109 tumors in fluorescein-immunized mice)
Type: in vivo
Details: female Balb/c mice preimmunized with KLH-fluorescein; s.c. M109 tumor; 500, 2000 or 5000 nmol/kg i.p., days 1-19; in combination with IL-2 and IFN-α; versus PBS control; FIG. 2
Procedure: Six to eight-week old (˜20-22 grams) female Balb/c mice (8 mice/group) were immunized subcutaneously at multiple sites with fluorescein-labeled keyhole limpet hemocyanin (KLH) using a commercial saponin adjuvant (GPI-0100; Galenica). After assuring that anti-fluorescein antibody titers were high in all mice (as evidenced by the results of ELISA assays of serum samples of the mice), each animal was injected subcutaneously in the shoulder with 1×10^6 M109 cells (a syngeneic lung cancer cell line that expresses high levels of the folate receptor; day 0) following prior immunization with KLH-fluorescein. The immunizations with folate-fluorescein after tumor cell implantation consisted of 500, 2000, or 5000 nmol/kg of folate-fluorescein, conjugated via a gamma carboxyl-linked ethylene diamine bridge, given in 19 intraperitoneal doses at 24 hour intervals (days 1-19). Control animals were injected with phosphate buffered saline (PBS). A series of 5 daily injections (five times a week) for three weeks of 20,000 IU/day of recombinant human IL-2 were administered to all mice in order to stimulate the immune system. A series of 3 injections for three weeks of 25,000 U/day of recombinant human IFN-α were also administered to all mice. The efficacy of this immunotherapy was then evaluated by monitoring tumor volume (mm^3) using a caliper.

Nc1nc2ncc(CNc3ccc(C(=O)NC(CCC(=O)NCCNC(=S)Nc4ccc5c(c4)C(=O)OC54c5ccc(O)cc5Oc5cc(O)ccc54)C(=O)O)cc3)nc2c(=O)[nH]1 (stereo not shown) [folate-fluorescein]
growth of solid tumors (tumor volume): significantly inhibited

From patent US8044200B2, “Synthesis and purification of pteroic acid and conjugates thereof” (Endocyte, Inc., priority 2005, dated 2011)
